Where two headings read alike, the source gives them in different places. [NapdU] = 5-(N-(1-naphthylmethyl)carboxamide)-2'-deoxyuridine (Nap-dU)
Columns and labels:
K-RAS G12D protein = K-RAS G12D protein (Homo sapiens, UniProt P01116, G12D); assay: ELISA binding affinity (Kd) for 2nd target; settings: read-out: Biding affinity for 2nd target Kd, ligands with biotin conjugated to the 5′-end
Procedure: The binding affinity of the nucleic acid ligands were measured using enzyme linked immunosorbent assay (ELISA).
The test method was composed of the following steps. • 1) A target protein was coated on a microplate at a low temperature for 16 hours. • 2) The surface of the microplate was blocked by reaction at room temperature for 1 hour using Blocking Buffer (Pierce™ Protein-Free (PBS) Blocking Buffer, Thermo Scientific, USA). • 3) The microplate was treated with a nucleic acid ligand, followed by reaction at 37° C. for 1 hour. • 4) For enzyme conjugation, the microplate was treated with a streptavidin-horseradish peroxidase (HRP) conjugate (Thermo Scientific, USA), followed by reaction at room temperature for 1 hour. • 5) The microplate was treated with TMB substrate solution (Thermo Scientific, USA), followed by reaction at room temperature for 30 minutes. • 6) The microplate was treated with a reaction termination solution (2 M sulfuric acid). • 7) The absorbance was measured at 450 nm using GloMax plate meter (Promega, USA).
The target protein and the nucleic acid ligand were each used at 4-fold dilution starting from 500 nM.

[1] = target: human serum albumin (HSA) (Homo sapiens, UniProt P02768); assay: ELISA binding affinity (Kd) for 1st target
[2] = Serum half-life in human serum (urea-PAGE band intensity); assay type: in vitro ADME; settings: 96% human serum, 37° C.; ligands with biotin conjugated to the 5′-end
Procedure: The stabilized nucleic acid ligand was added to the 96% human serum and then reacted at 37° C. for 0, 3, 6, 9, 12, 15, and 18 hours, thereby inducing the degradation of the nucleic acid ligand. After each of the reaction times, the nuclease was inactivated by heating at 85° C., and electrophoresis was performed on a 10% urea-polyacrylamide gel. A control without the addition of human serum was included as a loading control, and the band intensities of the control and the test groups were measured. The intensity trend line over time was determined using the measurement values, and the intensity value was inserted into the trend equation to obtain the half-life.

Sequence of human serum albumin (HSA) (P02768 25-609): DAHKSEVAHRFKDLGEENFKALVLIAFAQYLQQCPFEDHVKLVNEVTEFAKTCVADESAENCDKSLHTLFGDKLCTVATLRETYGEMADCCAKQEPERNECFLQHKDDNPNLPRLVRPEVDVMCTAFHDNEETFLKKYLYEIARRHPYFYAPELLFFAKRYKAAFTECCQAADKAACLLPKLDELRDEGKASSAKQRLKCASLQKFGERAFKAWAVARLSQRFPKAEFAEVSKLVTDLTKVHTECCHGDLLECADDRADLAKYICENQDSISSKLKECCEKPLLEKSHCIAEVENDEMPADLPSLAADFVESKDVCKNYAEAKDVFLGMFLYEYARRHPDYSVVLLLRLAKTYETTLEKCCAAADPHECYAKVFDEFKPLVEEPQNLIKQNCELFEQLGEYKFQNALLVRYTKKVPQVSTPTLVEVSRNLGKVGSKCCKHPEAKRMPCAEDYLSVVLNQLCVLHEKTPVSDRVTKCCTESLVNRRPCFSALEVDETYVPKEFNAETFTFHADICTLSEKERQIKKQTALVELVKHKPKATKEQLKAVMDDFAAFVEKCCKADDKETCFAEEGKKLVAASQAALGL

AD004: truncated nucleic acid ligand GCCTGGAC6AGCA6AAG6CCGGA6GGCAGC666A6GCCGACCA6CAGCC, 6 = Nap-dU (DNA GCCTGGACUAGCAUAAGUCCGGAUGGCAGCUUUAUGCCGACCAUCAGCC; aptamer; DNA, [NapdU] at 9, 14, 18, 24, 31, 32, 33, 35, 44, backbone and methylation of C not given here)
Kd (K-RAS G12D protein): 0.0166 µM | Kd [1]: 0.19 µM

AD005: truncated nucleic acid ligand GAC6AGCA6AAG6CCGGA6GGCAGC666A6GCCGACCA6, 6 = Nap-dU (DNA GACNAGCANAAGNCCGGANGGCAGCNNNANGCCGACCAN; Nap-dU modified bases; modified_base 4 OTHER; 5-(N-(1-naphthylmethyl)carboxamide)-2-deoxyuridine; modified_base 9 OTHER; 5-(N-(1-naphthylmethyl)carboxamide)-2'-deoxyuridine(Nap-dU); modified_base 13 OTHER; modified_base 19 OTHER; modified_base 26..28 OTHER; 5-(N-(1-naphthylmethyl)carboxamide)-2'-deox)
Kd (K-RAS G12D protein): 0.0229 µM | Kd ([1]; HSA, ELISA, ligands with biotin conjugated to the 5′-end, read-out: Biding affinity for 1st target Kd): 0.122 µM | Serum half-life t½ [2]: 30.1 h

AD006: truncated nucleic acid ligand GAC6AGCA6AAG6CCGGA6GGCAGC666A6GCCG, 6 = Nap-dU (DNA GACUAGCAUAAGUCCGGAUGGCAGCUUUAUGCCG; aptamer; DNA, [NapdU] at 4, 9, 13, 19, 26, 27, 28, 30, backbone and methylation of C not given here)
Kd (K-RAS G12D protein): 0.0776 µM | Kd [1]: 0.939 µM

AD007: truncated nucleic acid ligand GCA6AAG6CCGGA6GGCAGC666A6GCCGACC, 6 = Nap-dU (DNA GCAUAAGUCCGGAUGGCAGCUUUAUGCCGACC; aptamer; DNA, [NapdU] at 4, 8, 14, 21, 22, 23, 25, backbone and methylation of C not given here)
Kd (K-RAS G12D protein): 0.152 µM | Kd [1]: 0.536 µM

AD008: truncated nucleic acid ligand GCA6AAG6CCGGA6GGCAGC666A6GC, 6 = Nap-dU (DNA GCAUAAGUCCGGAUGGCAGCUUUAUGC; aptamer; DNA, [NapdU] at 4, 8, 14, 21, 22, 23, 25, backbone and methylation of C not given here)
Kd (K-RAS G12D protein): 0.287 µM | Kd [1]: 0.0669 µM

Source: patent US20240336926A1, “PHARMACEUTICAL COMPOSITION FOR TREATING TRIPLE NEGATIVE BREAST CANCER, CONTAINING NON-NATURAL NUCLEIC ACID LIGAND AS ACTIVE INGREDIENT” (INTEROLIGO CORPORATION, priority 2021, published 2024)
